Assay results reported in ChEMBL document CHEMBL5393457, “Combined inhibition of amino acid transporters for inhibiting human plasmacytoid dendritic cell activity during autoimmunity” (2022).
Values belong to the compound of their own block, whether it stands above or below them. Active and inactive are the calls of the source. The calls are words filed in the database; no cut-off is given here.

Experiments:
[1] = biological target: T1, Cystine/glutamate transporter (Homo sapiens) (UniProt Q9UPY5); experiment: Inhibition of XCT in IL-3 CpG-A-activated human plasma at 100 uM assessed as decrease in pDC activation in presence of 0.1 uM baricitinib
T1 sequence (whole entry): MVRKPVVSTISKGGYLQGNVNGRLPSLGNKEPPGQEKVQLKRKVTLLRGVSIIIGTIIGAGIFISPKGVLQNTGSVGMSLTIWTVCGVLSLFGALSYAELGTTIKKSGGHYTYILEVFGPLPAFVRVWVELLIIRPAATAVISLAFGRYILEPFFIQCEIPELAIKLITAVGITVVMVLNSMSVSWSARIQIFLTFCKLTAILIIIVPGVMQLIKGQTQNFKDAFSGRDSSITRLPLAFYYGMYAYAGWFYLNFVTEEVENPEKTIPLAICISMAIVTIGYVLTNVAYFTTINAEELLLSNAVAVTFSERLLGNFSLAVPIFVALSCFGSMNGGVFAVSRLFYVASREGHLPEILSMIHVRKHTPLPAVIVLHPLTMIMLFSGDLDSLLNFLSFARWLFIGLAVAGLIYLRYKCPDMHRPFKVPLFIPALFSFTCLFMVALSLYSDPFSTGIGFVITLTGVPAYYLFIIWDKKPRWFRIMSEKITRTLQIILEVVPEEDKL

[2] = biological target: T1, Cystine/glutamate transporter (Homo sapiens); experiment: Inhibition of XCT in IL-3 and CpG-A-stimulated human plasmacytoid dendritic cells at 100 uM assessed as decrease in TNF production in presence of 1 to 2 uM JPH203; assay type: cell-based; conditions: Plasmacytoid dendritic cell
[3] = biological target: T1, Cystine/glutamate transporter (Homo sapiens); experiment: Inhibition of XCT in IL-3 and CpG-A-stimulated human plasmacytoid dendritic cells at 100 uM assessed as decrease in TNF production in presence of 10 to 50 nM IQDMA; assay type: cell-based; conditions: Plasmacytoid dendritic cell
[4] = biological target: T1, Cystine/glutamate transporter (Homo sapiens); experiment: Inhibition of XCT in IL-3 and CpG-A-stimulated human plasmacytoid dendritic cells assessed as decrease in IFN-alpha production in presence of mavrilimumab; assay type: cell-based; conditions: Plasmacytoid dendritic cell
[5] = biological target: T1, Cystine/glutamate transporter (Homo sapiens); experiment: Inhibition of XCT in CpG-A-activated human plasmacytoid dendritic cells at 200 uM assessed as decrease in kynurenine uptake; assay type: cell-based; conditions: Plasmacytoid dendritic cell
[6] = biological target: T1, Cystine/glutamate transporter (Homo sapiens); experiment: Inhibition of XCT in IL-3 and CpG-A-stimulated human plasmacytoid dendritic cells at 100 uM assessed as decrease in IFN-alpha production in presence of 10 to 50 nM IQDMA; assay type: cell-based; conditions: Plasmacytoid dendritic cell
[7] = biological target: T1, Cystine/glutamate transporter (Homo sapiens); experiment: Inhibition of XCT in IL-3 and CpG-A-stimulated human plasmacytoid dendritic cells at 100 uM assessed as decrease in IFN-alpha production in presence of 0.2 to 5 ug/ml IGN523; assay type: cell-based; conditions: Plasmacytoid dendritic cell
[8] = biological target: T1, Cystine/glutamate transporter (Homo sapiens); experiment: Inhibition of XCT in IL-3 and CpG-A-stimulated human plasmacytoid dendritic cells at 100 uM assessed as decrease in TNF production in presence of 1 to 2 uM pimozide; assay type: cell-based; conditions: Plasmacytoid dendritic cell
[9] = biological target: Tyrosine-protein kinase JAK2 (Homo sapiens) (UniProt O60674); experiment: Inhibition of JAK2 in CpG-A-activated human plasmacytoid dendritic cells at 100 uM assessed as decrease in TNF production in presence of 25 to 100 uM baricitinib; assay type: cell-based; conditions: Plasmacytoid dendritic cell
[10] = biological target: T1, Cystine/glutamate transporter (Homo sapiens); experiment: Inhibition of XCT in IL-3 and CpG-A-stimulated human plasmacytoid dendritic cells assessed as decrease in TNF production in presence of mavrilimumab; assay type: cell-based; conditions: Plasmacytoid dendritic cell
[11] = biological target: T1, Cystine/glutamate transporter (Homo sapiens); experiment: Inhibition of XCT in CpG-A-activated human plasmacytoid dendritic cells at 100 uM assessed as decrease in IFN-alpha production in presence of 25 to 100 uM baricitinib; assay type: cell-based; conditions: Plasmacytoid dendritic cell
[12] = biological target: T1, Cystine/glutamate transporter (Homo sapiens); experiment: Inhibition of XCT in CpG-A-activated human plasmacytoid dendritic cells at 200 uM assessed as decrease in TNF production; assay type: cell-based; conditions: Plasmacytoid dendritic cell
[13] = biological target: T1, Cystine/glutamate transporter (Homo sapiens); experiment: Inhibition of XCT in CpG-A-activated human plasmacytoid dendritic cells at 200 uM assessed as decrease in S6 phosphorylation; assay type: cell-based; conditions: Plasmacytoid dendritic cell
[14] = biological target: T1, Cystine/glutamate transporter (Homo sapiens); experiment: Inhibition of XCT in IL-3 CpG-A-activated human plasma at 200 uM assessed as decrease in pDC activation
[15] = biological target: T1, Cystine/glutamate transporter (Homo sapiens); experiment: Inhibition of XCT in IL-3 and CpG-A-stimulated human plasmacytoid dendritic cells at 100 uM assessed as decrease in TNF production in presence of 1 to 2 uM AC-4-130; assay type: cell-based; conditions: Plasmacytoid dendritic cell
[16] = biological target: T1, Cystine/glutamate transporter (Homo sapiens); experiment: Inhibition of XCT in CpG-A-activated human plasmacytoid dendritic cells at 200 uM assessed as decrease in MYO1E expression; assay type: cell-based; conditions: Plasmacytoid dendritic cell
[17] = biological target: T1, Cystine/glutamate transporter (Homo sapiens); experiment: Inhibition of XCT in CpG-A-activated human plasmacytoid dendritic cells at 200 uM assessed as decrease in IFN-alpha production; assay type: cell-based; conditions: Plasmacytoid dendritic cell
[18] = biological target: T1, Cystine/glutamate transporter (Homo sapiens); experiment: Inhibition of XCT in IL-3 and CpG-A-stimulated human plasmacytoid dendritic cells at 100 uM assessed as decrease in IFN-alpha production in presence of 1 to 2 uM AC-4-130; assay type: cell-based; conditions: Plasmacytoid dendritic cell
[19] = biological target: T1, Cystine/glutamate transporter (Homo sapiens); experiment: Inhibition of XCT in CpG-A-activated human plasmacytoid dendritic cells at 200 uM assessed as decrease in ENPP2 expression; assay type: cell-based; conditions: Plasmacytoid dendritic cell
[20] = biological target: T1, Cystine/glutamate transporter (Homo sapiens); experiment: Inhibition of XCT in IL-3 and CpG-A-stimulated human plasmacytoid dendritic cells at 100 uM assessed as decrease in IFN-alpha production in presence of 1 to 2 uM pimozide; assay type: cell-based; conditions: Plasmacytoid dendritic cell
[21] = biological target: T1, Cystine/glutamate transporter (Homo sapiens); experiment: Inhibition of XCT in IL-3 and CpG-A-stimulated human plasmacytoid dendritic cells at 100 uM assessed as decrease in TNF production in presence of 0.2 to 5 ug/ml IGN523; assay type: cell-based; conditions: Plasmacytoid dendritic cell
[22] = biological target: T1, Cystine/glutamate transporter (Homo sapiens); experiment: Inhibition of XCT in IL-3 and CpG-A-stimulated human plasmacytoid dendritic cells at 100 uM assessed as decrease in IFN-alpha production in presence of 1 to 2 uM JPH203; assay type: cell-based; conditions: Plasmacytoid dendritic cell
[23] = biological target: Large neutral amino acids transporter small subunit 1 (Homo sapiens) (UniProt Q01650); experiment: Inhibition of SLC7A5 in CpG-A-stimulated human plasmacytoid dendritic cells at 5 to 10 uM assessed as decrease in pS6 levels; assay type: cell-based; conditions: Plasmacytoid dendritic cell, dose 5-10 µM
[24] = test system: Plasmacytoid dendritic cell; experiment: Inhibition of SLC7A5/SLC3A2 in IL-3 and CpG-A-stimulated human plasmacytoid dendritic cells at 1 to 2 uM assessed as decrease in IFN-alpha production in presence of 100 uM sulfasalazine; assay type: cell-based; conditions: dose 1-2 µM
[25] = biological target: Large neutral amino acids transporter small subunit 1 (Homo sapiens) (UniProt Q01650); experiment: Inhibition of SLC7A5 in CpG-A-stimulated human plasmacytoid dendritic cells at 5 to 10 uM assessed as decrease in IFN-alpha production; assay type: cell-based; conditions: Plasmacytoid dendritic cell, dose 5-10 µM
[26] = biological target: Large neutral amino acids transporter small subunit 1 (Homo sapiens) (UniProt Q01650); experiment: Inhibition of SLC7A5 in CpG-A-stimulated human plasmacytoid dendritic cells at 5 to 10 uM assessed as decrease in kynurenine transport; assay type: cell-based; conditions: Plasmacytoid dendritic cell, dose 5-10 µM
[27] = biological target: Large neutral amino acids transporter small subunit 1 (Homo sapiens) (UniProt Q01650); experiment: Inhibition of SLC7A5 in CpG-A-stimulated human plasmacytoid dendritic cells at 5 to 10 uM assessed as decrease in TNF production; assay type: cell-based; conditions: Plasmacytoid dendritic cell, dose 5-10 µM
[28] = test system: Plasmacytoid dendritic cell; experiment: Inhibition of SLC7A5/SLC3A2 in IL-3 and CpG-A-stimulated human plasmacytoid dendritic cells at 1 to 2 uM assessed as decrease in TNF production in presence of 100 uM sulfasalazine; assay type: cell-based; conditions: dose 1-2 µM
[29] = biological target: T2, Janus Kinase (JAK) (Homo sapiens) (UniProt P52333+P23458+O60674+P29597); experiment: Inhibition of JAK in IL-3 and CpG-A-stimulated human plasmacytoid dendritic cells at 0.2 to 20 uM assessed as decrease in IFN-alpha production; assay type: cell-based; conditions: Plasmacytoid dendritic cell, dose 0.2-20 µM
[30] = biological target: T2, Janus Kinase (JAK) (Homo sapiens); experiment: Inhibition of JAK in IL-3 and CpG-A-stimulated human plasmacytoid dendritic cells at 0.2 to 20 uM assessed as decrease in TNF production; assay type: cell-based; conditions: Plasmacytoid dendritic cell, dose 0.2-20 µM

Large neutral amino acids transporter small subunit 1 (Homo sapiens), sequence (Q01650 whole entry): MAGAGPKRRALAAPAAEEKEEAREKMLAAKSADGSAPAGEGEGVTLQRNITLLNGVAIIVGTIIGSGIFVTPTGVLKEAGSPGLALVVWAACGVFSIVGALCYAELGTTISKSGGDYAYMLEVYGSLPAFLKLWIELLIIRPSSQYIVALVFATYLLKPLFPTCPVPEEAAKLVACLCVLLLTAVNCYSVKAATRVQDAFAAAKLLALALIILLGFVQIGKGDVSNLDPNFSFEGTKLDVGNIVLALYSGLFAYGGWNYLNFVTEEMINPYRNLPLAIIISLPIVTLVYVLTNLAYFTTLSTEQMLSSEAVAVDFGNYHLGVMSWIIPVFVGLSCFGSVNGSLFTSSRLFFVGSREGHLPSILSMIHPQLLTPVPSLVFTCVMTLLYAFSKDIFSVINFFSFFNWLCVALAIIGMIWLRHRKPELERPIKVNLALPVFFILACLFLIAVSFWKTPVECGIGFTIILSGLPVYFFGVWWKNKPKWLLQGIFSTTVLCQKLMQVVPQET
Tyrosine-protein kinase JAK2 (Homo sapiens), sequence (O60674 whole entry): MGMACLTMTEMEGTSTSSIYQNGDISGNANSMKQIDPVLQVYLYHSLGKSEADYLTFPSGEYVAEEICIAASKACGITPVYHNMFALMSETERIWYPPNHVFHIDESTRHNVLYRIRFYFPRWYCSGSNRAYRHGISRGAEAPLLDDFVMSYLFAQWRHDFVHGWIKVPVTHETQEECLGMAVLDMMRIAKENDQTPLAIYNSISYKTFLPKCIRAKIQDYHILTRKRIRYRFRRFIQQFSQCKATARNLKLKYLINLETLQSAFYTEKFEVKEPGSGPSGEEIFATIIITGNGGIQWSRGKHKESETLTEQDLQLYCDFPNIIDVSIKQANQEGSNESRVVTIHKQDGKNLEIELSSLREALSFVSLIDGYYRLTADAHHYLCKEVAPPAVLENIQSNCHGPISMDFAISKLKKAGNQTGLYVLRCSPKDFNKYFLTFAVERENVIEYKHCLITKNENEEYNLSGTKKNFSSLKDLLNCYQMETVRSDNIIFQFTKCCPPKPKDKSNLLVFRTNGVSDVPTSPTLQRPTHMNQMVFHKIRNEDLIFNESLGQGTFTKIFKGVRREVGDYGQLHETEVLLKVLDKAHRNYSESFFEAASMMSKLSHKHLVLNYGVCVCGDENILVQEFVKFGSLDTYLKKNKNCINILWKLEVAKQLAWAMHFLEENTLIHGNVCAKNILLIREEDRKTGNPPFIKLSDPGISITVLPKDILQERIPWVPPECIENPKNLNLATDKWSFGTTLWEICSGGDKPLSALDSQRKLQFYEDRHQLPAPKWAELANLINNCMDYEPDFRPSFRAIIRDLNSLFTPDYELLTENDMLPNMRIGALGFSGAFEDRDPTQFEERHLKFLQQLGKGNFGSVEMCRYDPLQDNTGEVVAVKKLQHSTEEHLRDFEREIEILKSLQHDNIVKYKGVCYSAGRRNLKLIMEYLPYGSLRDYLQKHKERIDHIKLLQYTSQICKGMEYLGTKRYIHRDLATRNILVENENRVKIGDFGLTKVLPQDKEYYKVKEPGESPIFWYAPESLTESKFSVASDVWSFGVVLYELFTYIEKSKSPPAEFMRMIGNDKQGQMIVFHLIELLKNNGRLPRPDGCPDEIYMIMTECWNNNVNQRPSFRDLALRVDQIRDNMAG

inhibition [1]: Active | inhibition [2]: Active | inhibition [3]: Active | inhibition [4]: Active | inhibition [5]: Active | inhibition [6]: Active | inhibition [7]: Active | inhibition [8]: Active | inhibition [9]: Active | inhibition [10]: Active | inhibition [11]: Active | inhibition [12]: Active | inhibition [13]: Active | inhibition [14]: Active | inhibition [15]: Active | inhibition [16]: Active | inhibition [17]: Active | inhibition [18]: Active | inhibition [19]: Active | inhibition [20]: Active | inhibition [21]: Active | inhibition [22]: Active
SMILES: O=C(O)c1cc(/N=N/c2ccc(S(=O)(=O)Nc3ccccn3)cc2)ccc1O

inhibition [23]: Active | inhibition [25]: Active | inhibition [26]: Active | inhibition [27]: Active
SMILES: Nc1cc(COc2c(Cl)cc(C[C@H](N)C(=O)O)cc2Cl)c2oc(-c3ccccc3)nc2c1
inhibition [24]: Active | inhibition [28]: Active

inhibition [29]: Active | inhibition [30]: Active
SMILES: CN(Cc1cnc2nc(N)nc(N)c2n1)c1ccc(C(=O)N[C@@H](CCC(=O)O)C(=O)O)cc1
